What was measured:
C57BL/6 mice = assay: 28-day repeated dose toxicity study; conditions: oral 20 or 40 mg/kg daily, 28 days
Description: 28-day repeated dose toxicity study: To evaluate toxicity of UroA and UAS03, we performed 28-days repeated dose toxicity study. Mice were fed (oral gavage) with UroA (20 and 40 mg/kg/day) and UAS03 (20 and 40 mg/kg/day) daily for 28 days. Body weight, food and water intake were assessed weekly. After 28 days, mice were sacrificed and gross examination of all major organs were performed. Blood was collected to obtain serum. Serum alanine aminotransferase (ALT) and asparate aminotransferase (AST) were analyzed using ALT/AST kit (BioVision) as per instructional manual.

Cyp1A1 = Cyp1A1 enzyme activity in colon and liver microsomes of treated mice; assay type: in vivo, mouse; conditions: 1 week; for Cyp1A1 activity in colon tissues compared to BNF and FICZ treated mice: UroA/UAS03 oral 20 mg/kg/day, FICZ i.p.; for Cyp1A1 activity increase in colons: i.p., UroA/UAS03 5 mg/kg/day, FICZ 1 μg/mouse/day; for Cyp1A1 activity in colon and liver, AhR^−/− mice / Cyp1A1 activity in colon and liver, wild type mice: oral 20 mg/kg, EROD
Description: Measurements of Cyp1A1 enzyme activity (Ex vivo): Mice were treated with Vehicle or UroA or UAS03, BNF or FICZ daily for one week at indicated concentration either through oral or i.p. route. After one week, mice were euthanized and the colon and liver tissues were dissected. Microsomes from these tissues were prepared using the following procedure (SINGH et al., (2013) “Evaluation of memory enhancing clinically available standardized extract of Bacopa monniera on P-glycoprotein and cytochrome P450 3A in Sprague-Dawley rats” PloS one, Vol. 8, Article e72517). For hepatic microsomes, liver was first perfused with 0.9% sodium chloride solution and excised out. Adhering blood and saline was removed by blotting on tissue paper and tissue was homogenized in tissue homogenization buffer (50 mM Tris-HCl, pH 7.4 with 250 mM sucrose). Homogenate was centrifuged at 10,000×g for 30 minutes at 4° C. supernatant obtained was further centrifuged at 105,000×g for 60 minutes at 4° C. The pellet was washed with homogenization buffer and centrifuged again at 105,000×g for 60 minutes at 4° C. The pellet was suspended in homogenization buffer and used for protein and CYP assay. For intestinal microsome preparation, intestine was removed and washed with 0.9% sodium chloride. The intestine was longitudinally cut open to expose mucosal layer and mucosa was scrapped with help of glass slide. The scraped tissue was collected in homogenization buffer (50 mM Tris-HCl buffer containing glycerol (20% v/v), protease inhibitor (1%) and heparin (3 U/ml)). This suspended mucosa was homogenized and centrifuged at 10,000×g for 20 minutes at 4° C. Supernatant obtained was further centrifuged at 105,000×g for 60 minutes at 4° C. The pellet was washed with buffer and centrifuged again at 105,000×g for 60 minutes at 4° C. The pellet was suspended homogenization buffer and used for protein and CYP enzymes assays.
Ethoxyresorufin-O-deethylase (EROD) assay: The microsomal proteins (0.5 mg) were mixed with 200 μL Tris buffer (0.1 M, pH 7.4) containing ethoxyresorufin (0.01 mM). To start reaction, NADPH (0.1 mM) was added and incubated at 37° C. for 10 min. After 10 min, reaction was terminated by adding equal volume of acetonitrile and reaction mixture was centrifuged at 13000×g for 10 min at 4° C. Supernatant was used to determine resorufin by measuring fluorescence (Ex. 530 nm, Em. 580 nm). Pure resorufin (Sigma Aldrich) was used to generate standard curve.
P450-Glo Cyp1A1 luminiscence assay: The above microsomes (20 μg) were used for P450-Glo Cyp1A1 luminiscence assays as per manufacturer's instructions.

Nrf2 = Nrf2 expression, nuclear translocation and target genes; assay type: cell-based, human; conditions: for NQO1 expression in HT29 cells: 50 μM; for Nrf2 mRNA and protein levels / Nrf2 nuclear translocation: HT29, 50 μM; for Nrf2 nuclear translocation: 6 h
Description: Real time PCR: Total RNA was isolated from cells/tissue using Maxwell® 16 LEV simplyRNA tissue kit (Promega) and reverse transcribed with TaqManC Reverse transcription Kit (Applied Biosystems, CA, USA). The transcribed cDNA (after dilution) was mixed with 100 nM gene specific primers (Real time primers LLC) and 1×SYBR green reaction mix (Power SYBR® Green PCR Master Mix; Applied Biosystems, CA, USA). Changes in gene expression was analyzed using CFX96™ Real-Time System (Bio Rad) and fold change in expression was calculated using 2^ΔΔCT method using GAPDH/0-actin as house keeping gene and normalized with untreated control.
(§1) Immunoblots (Western blots): The total protein lysates were collected either from colon tissue/cells using radioimmunoprecipitation assay (RIPA) buffer (Sigma-Aldrich, USA) and quantified using BCA protein quantification kit (Thermo Scientific) as per instructional manual. Total protein (20-50 μg) of was resolved on NuPAGE™ 4-12% Bis-Tris gel (Novex Life technologies) and transferred to polyvinylidene difluoride membrane (0.22 μm pore; Millipore, USA). After blocking with 5% (w/v) skim milk powder (containing 1×TBS) for 1 h, the membrane was then incubated with respective antibodies at 4° C. overnight (dilutions of respective antibodies is given in Table A1). Next day, respective secondary antibody conjugated with Horseradish peroxidase were probed and the chemiluminescent substrate was used to detect the protein bands (ImageQuant LAS 4000). Densitometry analysis of bands were done using ImageJ software. Antibodies for Cldn4, Ocln, Cldn1, Cyp1A1, AhR, HO1, NQO1, Keap1, β-actin and Lamin B were purchased from Santa Cruz Biotechnologies (USA) and Nrf2 from Novus Biologicals (USA).
Confocal Imaging: HT29 or CaCo2 or BMDM cells (50,000 cells/well) were plated on to 8-well chambered slides (154534PK; ThermoFisher Scientific) allowed them to grow overnight. The cells were induced with vehicle (0.01% DMSO) or UroA (50 μM) or UAS03 (50 μM) for desired time points and fixed with cold methonol. The AhR or Nrf2 or Cldn4 stained with respective antibodies (1:200 dilution) followed by fluorecently labelled (Alexa flour 594 for AhR and Alexa flour 488 for Nrf2 and Cldn4) secondary ab (1:500 dilution; ThermoFisher Scientific). The nucleus was stained with DAPI (Sigma Aldrich). The confocal images were captured using Nikon AIR confocal microscope using 60× magnification lense with appropriate laser channels.

[1] = test system: C57BL/6, Nrf2^−/− and AhR^−/− mice; assay: Colon protein/mRNA expression after 7 days of oral treatment; assay type: in vivo, mouse; conditions: for AhR expression in colons of treated mice / Nrf2 and HO1 in the colons of wild type mice / expression of Cldn4 in the colons of mice: oral 20 mg/kg daily, 7 days; for Nrf2 and tight junction proteins (Cldn4, NQO1, Ocln, ZO1 and TJP3) in WT mice / Nrf2 and tight junction proteins in Nrf2^−/− and AhR^−/− mice: orally 20 mg/kg daily, seven days
Description: as §1
Tissue processing for RNA and protein analysis: Mice were treated with as described in results section. Mice were euthanized with CO2 asphyxiation followed by cervical dislocation. Colon was dissected out and luminal contents were flushed out with cold PBS (containing PMSF and Sodium orthvandate). Small portion of colon was snap frozen in liquid nitrogen and stored at −80° C. for RNA analysis. For preparation of protein samples, colon was opened longitudinally and mucosa was scraped in ice-cold 1×PBS using pre-chilled glass slide and centrifuged at 300×g for 10 min at 4° C. Supernatant was discarded and pellet was suspended in RIPA buffer (containing 1× protease inhibitor) and vortexed at high speed. After 30 min incubation on ice, samples were centrifuged at 13,000×g for 20 min at 4° C. Supernatant was collected and protein was quantified using BCA protein quantification kit. The lysates were used appropriately for Western blots.

Row | Compound | serum AST and ALT levels at day 28 (C57BL/6 mice) | Cyp1A1 activity in colon tissues compared to BNF and FICZ treated mice (Cyp1A1) | Cyp1A1 activity increase in colons (Cyp1A1) | Cyp1A1 activity in colon and liver, AhR^−/− mice (Cyp1A1) | Cyp1A1 activity in colon and liver, wild type mice (Cyp1A1) | NQO1 expression in HT29 cells (Nrf2) | Nrf2 mRNA and protein levels (Nrf2) | Nrf2 nuclear translocation (Nrf2) | AhR expression in colons of treated mice [1] | Nrf2 and HO1 in the colons of wild type mice [1] | expression of Cldn4 in the colons of mice [1] | Nrf2 and tight junction proteins (Cldn4, NQO1, Ocln, ZO1 and TJP3) in WT mice [1] | Nrf2 and tight junction proteins in Nrf2^−/− and AhR^−/− mice [1] | signs of toxicity (body weights, CBC counts, serum ALT and AST) (C57BL/6 mice)
1 | O=c1oc2cc(O)ccc2c2ccc(O)cc12 [UroA, 3,8-dihydroxy-6H-dibenzo[b,d]pyran-6-one] | no significant differences | relatively more Cyp1A1 activity in colon tissues | ~3 fold | but not in AhR^−/− mice | activated Cyp1A1 activity | induced NQO1 expression | upregulated Nrf2 | induced its nuclear translocation | upregulated | upregulated | elevated expression | upregulated | did not appear to induce | –
2 | Oc1ccc2c(c1)COc1cc(O)ccc1-2 [UAS03, 6H-benzo[c]chromene-3,8-diol] | no significant differences | relatively more Cyp1A1 activity in colon tissues | ~3 fold | but not in AhR^−/− mice | activated Cyp1A1 activity | induced NQO1 expression | upregulated Nrf2 | induced its nuclear translocation | upregulated | upregulated | elevated expression | upregulated | did not appear to induce | did not exhibit any signs of toxicity
